In brackets after ≈: the same amount, converted by molar mass. Where a name gives a salt, the structure may show the parent alone.
Experiments:
[1] = system: CMT12 cell line; settings: 48 hours MTT
Experimental: (§1) CMT12, 17-71 and D17 cells are plated at a density of 2500 cells per well in 96-well tissue culture-treated plates (Laboratory Product Sales, Rochester, New York). All cell lines are treated with identical concentrations of the pure CBD ([…]) and various concentrations of doxorubicin or vincristine. The concentration of doxorubicin varies between cell lines in order to achieve between 20% and 80% proliferation inhibition. The cell lines are treated with serial dilutions of doxorubicin as follows; CMT12 and D17 (0.067-2 μM) and 17-71 (0.0167-0.5 μM). Methanol is used as a vehicle control for all CBD treatments and sterile water for doxorubicin and vincristine at the highest doses used to represent the vehicle control treated wells. Cells are then incubated for 48 hours prior to performing MTT assays, as previously described. Wells treated with the vehicle control are considered to represent 100% proliferating cells in triplicate over three experiments. Percent viable cells for each specific combination are averaged and reported as mean percent proliferation+/— SD for further CI evaluation.
(§2) Raw data from MTT proliferation assays and trypan blue exclusion assays (individual optical density of each well) are normalized to the vehicle control treatment for each cell line, considered to represent 100% proliferating cells (single or combined treatment). The percent proliferating cells is determined by comparing optical density readings or live counts, respectively, of treatment wells at each concentration compared with vehicle control wells in each cell line.
(§3) The compound interactions of chemotherapy and CBD treatment in the CI studies are calculated by multiple drug effect analysis using Compusyn software (v.2; Compusyn Inc, Paramus, New Jersey) which employs the median equation principle according to the methodology described by Chou and Talalay to determine a CI value by the Formula I (Chou T C, Drug combination studies and their synergy quantification using the Chou-Talalay method, Cancer Res., 2010, 70(2), pp. 440-446, which is incorporated herein by reference in its entirety):
(§4) where (D)1 and (D)2 are the doses of both compounds in combination and (Dx)1 and (Dx)2 are the doses of each compound alone at x percent of inhibition. CI values≤0.9 indicate synergism, a CI value>0.9 and <1.1 indicates an additive effect, and CI values≥1.1 indicate antagonism.

[2] = system: D17 cell line; settings: 48 hours MTT
Experimental: as §1, §2, §3, §4

[3] = Pharmacokinetics of three oral forms of CBD-rich hemp extract in dogs (serum LC-MS/MS); settings: oral hemp extract forms 2 mg/kg CBD/CBDA
Text: The pharmacokinetics of cannabidiol (CBD), cannabidiolic acid (CBDA), Δ9-tetrahydrocannabinol (THC), and tetrahydrocannabinolic acid (THCA) on three oral forms of CBD-rich hemp extract that contained near equal amounts of CBD and CBDA, and minor amounts (<0.3% by weight) of THC and THCA in dogs were studied. The metabolized psychoactive component of THC, 11-hydroxy-Δ9-tetrahydrocannabinol (11-OH-THC) and CBD metabolites 7-hydroxycannabidiol (7-OH-CBD) and 7-nor-7-carboxycannabidiol (7-COOH-CBD) were also assessed to better understand the pharmacokinetic differences between three formulations regarding THC and CBD, and their metabolism. Six purpose-bred female beagles were utilized for study purposes, each having an initial 7-point, 24-h pharmacokinetic study performed using a dose of 2 mg/kg body weight of CBD/CBDA (˜1 mg/kg CBD and ˜1 mg/kg CBDA). Dogs were then dosed every 12 h for 2 weeks and had further serum analyses at weeks 1 and 2, 6 h after the morning dose to assess serum cannabinoids. Serum was analyzed for each cannabinoid or cannabinoid metabolite using liquid chromatography and tandem mass spectroscopy (LC-MS/MS).

[4] = molecular target: T1, canine P-glycoprotein (Canis lupus familiaris, UniProt C0KKU9); test: P-glycoprotein competitive transport assay (rhodamine 123, MDCK PGP cells); type: in vitro ADME; settings: rhodamine competition, CBD at 1000 ng/mL
T1 construct: host or cells: MDCK PGP cells (canine P-gp expressing cell line)
Experimental: In this second study, a competitive P-gp substrate assay incorporating a canine P-gp expressing cell line is used to assess each test compound's ability to compete with the P-gp substrate rhodamine 123. Each concentration is tested on 3 separate days with same-day duplicates. Positive controls and negative controls are included in each run.
Results for each concentration of test compound evaluated are reported as non-P-gp substrate, weak P-gp substrate, moderate P-gp substrate, or strong P-gp substrate. The concentrations for CBD and CBDA are as follows: 10 ng/mL, 100 ng/mL and 1,000 ng/mL.
A competitive P-gp substrate assay using a canine P-gp expressing cell line was used to assess CBDA and/or CBD as a substrate for canine P-glycoprotein.

[5] = molecular target: CYP3A12 (Canis lupus familiaris, UniProt P24463); test: CYP3A12 activity inhibition in pooled dog liver microsomes; settings: CYP3A12; no preincubation vs 20 min preincubation; 10 μM
Experimental: (§5) Inhibition potency (i.e. IC50) is determined by measuring the decrement in metabolism of P450-specific marker activities in pooled dog liver microsomes with increasing concentrations of CBD, CBDA, and hemp extracts. P450-specific markers include bupropion 6-hydroxylation (CYP2B11), dextromethorphan 0-demethylation (CYP2D15) and omeprazole sulfoxidation (CYP3A12). IC50 values are determined both with and without preincubation of liver microsomes with potential inhibitor to evaluate whether there is mechanism-based time-dependent inhibition.
(§6) The following parameters are assessed: (1) the rates of CBD and CBDA metabolism by dog liver microsomes and by 11 recombinant canine P450 enzymes; (2) the predicted percent contribution of each P450 to total CBD and CBDA metabolism in dog liver; and (3) IC50 values for inhibition of CYP2B11, CYP2D15 and CYP3A12 metabolism in dog liver, both with and without inhibitor preincubation.
(§7) FIGS. 13-15 show activity assays for CYP3A12 (FIGS. 13A and 13B), CYP2B11 (FIGS. 14A and 14B), and CYP2D15 (FIGS. 15A and 15B). Assays using either no preincubation (FIGS. 13A, 14A, and 15A) or 20 minutes of preincubation (FIGS. 13B, 14B, and 15B) were performed.

[6] = molecular target: T2, CYP2B11 (Canis lupus familiaris, UniProt P24460); test: CYP2B11 activity inhibition in pooled dog liver microsomes; settings: CYP2B11; no preincubation vs 20 min preincubation; 10 μM
T2 sequence (P24460 1-494): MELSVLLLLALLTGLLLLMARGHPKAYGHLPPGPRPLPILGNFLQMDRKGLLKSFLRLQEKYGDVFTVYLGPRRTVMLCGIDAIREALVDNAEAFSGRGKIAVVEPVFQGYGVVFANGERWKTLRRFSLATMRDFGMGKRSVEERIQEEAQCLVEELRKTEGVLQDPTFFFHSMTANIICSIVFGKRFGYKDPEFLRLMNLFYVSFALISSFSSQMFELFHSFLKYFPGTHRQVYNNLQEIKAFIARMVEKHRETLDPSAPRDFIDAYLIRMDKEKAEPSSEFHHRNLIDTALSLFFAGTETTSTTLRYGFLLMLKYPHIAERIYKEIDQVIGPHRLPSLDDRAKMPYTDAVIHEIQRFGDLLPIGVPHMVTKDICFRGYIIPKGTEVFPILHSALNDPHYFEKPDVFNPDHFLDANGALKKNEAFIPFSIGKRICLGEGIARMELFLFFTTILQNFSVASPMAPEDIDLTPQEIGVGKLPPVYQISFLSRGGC
Experimental: as §5, §6, §7

[7] = molecular target: T3, CYP2D15 (Canis lupus familiaris, UniProt Q29473); test: CYP2D15 activity inhibition in pooled dog liver microsomes; type: in vitro ADME; settings: no preincubation vs 20 min preincubation, 10 μM
T3 construct: P450-specific marker activities in pooled dog liver microsomes; from tissue; host or cells: pooled dog liver microsomes
T3 sequence (Q29473 1-500): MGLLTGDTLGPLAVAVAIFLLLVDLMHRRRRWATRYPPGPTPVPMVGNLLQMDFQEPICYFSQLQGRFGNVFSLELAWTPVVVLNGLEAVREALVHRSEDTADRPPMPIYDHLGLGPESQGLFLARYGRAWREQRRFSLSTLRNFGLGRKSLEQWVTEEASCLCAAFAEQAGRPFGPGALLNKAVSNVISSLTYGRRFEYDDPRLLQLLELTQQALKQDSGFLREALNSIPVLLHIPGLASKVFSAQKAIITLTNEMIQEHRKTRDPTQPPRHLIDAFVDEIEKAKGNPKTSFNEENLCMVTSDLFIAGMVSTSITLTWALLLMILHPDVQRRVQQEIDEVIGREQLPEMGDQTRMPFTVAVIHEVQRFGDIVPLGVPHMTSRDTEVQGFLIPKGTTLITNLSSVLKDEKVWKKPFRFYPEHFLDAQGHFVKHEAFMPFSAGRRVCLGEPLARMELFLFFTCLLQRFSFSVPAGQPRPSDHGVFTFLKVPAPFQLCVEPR

[8] = system: 17-71 B cell lymphoma cell line; test: 48 hours MTT proliferation assay, 17-71; type: cell-based, canine; settings: pure compound
Experimental: (§8) 3-(4,5-Dimethylthaizol-2-yl)-2,5-diphenyltetrazolium bromide (MTT) assays are performed on all previously described cell lines; CMT12, HMPOS, D17, Abrams and 17-71. […] Cells are treated with vehicle (methanol or ethanol/DMSO mix) or various concentrations of the CBD, CBDA or CBD-rich hemp extract ranging from 0.42 to 20 μg/mL in serial dilution for 48 hours. MTT assays are performed after 48 hours of treatment by adding 20 μL of MTT dye ([…] filtered 5 mg/mL in phosphate-buffered saline [PBS]) to each well and incubating at 37° C. in 5% CO2 for 2 hours. The media is then aspirated, washed once with 200 μL of PBS and then solubilized in 200 μL of ethanol. Immediate analysis of the optical density of each well is performed using a spectrophotometric plate reader (Epoch; Biotek, Winooski, Vermont) at a wavelength of 570 nm as previously described (e.g., Vega-Avila E and Pugsley M K, An overview of colorimetric assay methods used to assess survival or proliferation of mammalian cells, Proc West Pharmacol Soc., 2011, 54, pp. 10-14 which is incorporated herein by reference in its entirety). The percent proliferating cells of control for each concentration is averaged and reported as a mean+/—SD from triplicate wells over three experiments.
(§9) For CBD, CBDA and hemp extract concentrations needed to obtain a 50% inhibition of cell proliferation (IC50) are then calculated across experiments by Probit analysis using XLFit5 software (IDBS, Guildford, United Kingdom) for reporting the results for each cell line.

[9] = system: CMT12 mammary gland carcinoma cell line; test: 48 hours MTT proliferation assay, CMT12; type: cell-based, canine; settings: pure compound
Experimental: as §8, §9

[10] = system: Abrams osteosarcoma cell line; test: 48 hours MTT proliferation assay, Abrams; type: cell-based, canine; settings: pure compound
Experimental: as §8, §9

[11] = system: D17 osteosarcoma cell line; test: 48 hours MTT proliferation assay, D17; type: cell-based, canine; settings: pure compound
Experimental: as §8, §9

[12] = system: HMPOS osteosarcoma cell line; test: 48 hours MTT proliferation assay, HMPOS; type: cell-based, canine; settings: pure compound
Experimental: as §8, §9

T1 sequence (C0KKU9 1-1281): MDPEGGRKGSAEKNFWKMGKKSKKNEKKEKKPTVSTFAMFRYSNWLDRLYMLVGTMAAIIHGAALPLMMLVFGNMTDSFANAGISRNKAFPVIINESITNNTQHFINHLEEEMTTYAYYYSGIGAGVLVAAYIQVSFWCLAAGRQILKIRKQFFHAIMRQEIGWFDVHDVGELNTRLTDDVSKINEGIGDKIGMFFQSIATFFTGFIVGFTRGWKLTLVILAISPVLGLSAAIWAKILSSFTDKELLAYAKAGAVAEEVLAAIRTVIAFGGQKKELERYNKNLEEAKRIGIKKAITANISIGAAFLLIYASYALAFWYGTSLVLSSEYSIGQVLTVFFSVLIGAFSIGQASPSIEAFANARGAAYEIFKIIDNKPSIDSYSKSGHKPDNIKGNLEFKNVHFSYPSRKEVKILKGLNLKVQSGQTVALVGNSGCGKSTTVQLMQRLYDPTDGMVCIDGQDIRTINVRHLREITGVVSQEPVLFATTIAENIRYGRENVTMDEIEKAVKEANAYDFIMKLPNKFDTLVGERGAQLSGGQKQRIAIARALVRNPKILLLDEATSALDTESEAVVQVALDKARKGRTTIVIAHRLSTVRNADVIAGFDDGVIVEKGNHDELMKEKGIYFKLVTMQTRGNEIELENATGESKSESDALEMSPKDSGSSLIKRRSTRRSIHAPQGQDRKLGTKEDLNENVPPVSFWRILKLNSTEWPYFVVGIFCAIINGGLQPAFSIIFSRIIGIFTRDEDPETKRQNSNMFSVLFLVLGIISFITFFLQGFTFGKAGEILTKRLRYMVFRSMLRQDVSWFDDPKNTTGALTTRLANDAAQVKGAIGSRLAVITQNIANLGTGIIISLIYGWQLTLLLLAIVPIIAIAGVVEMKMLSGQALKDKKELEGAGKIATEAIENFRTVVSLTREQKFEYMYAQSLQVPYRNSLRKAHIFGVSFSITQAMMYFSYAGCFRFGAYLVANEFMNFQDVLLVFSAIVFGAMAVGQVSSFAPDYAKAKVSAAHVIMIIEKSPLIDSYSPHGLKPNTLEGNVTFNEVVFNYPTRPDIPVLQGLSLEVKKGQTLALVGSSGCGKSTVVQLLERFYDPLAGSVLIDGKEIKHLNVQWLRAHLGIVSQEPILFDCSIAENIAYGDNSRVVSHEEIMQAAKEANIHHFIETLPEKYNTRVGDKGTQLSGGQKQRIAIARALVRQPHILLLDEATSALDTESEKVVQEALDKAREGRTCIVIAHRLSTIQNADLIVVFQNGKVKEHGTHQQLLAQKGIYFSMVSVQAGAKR
CYP3A12, sequence (P24463 whole entry): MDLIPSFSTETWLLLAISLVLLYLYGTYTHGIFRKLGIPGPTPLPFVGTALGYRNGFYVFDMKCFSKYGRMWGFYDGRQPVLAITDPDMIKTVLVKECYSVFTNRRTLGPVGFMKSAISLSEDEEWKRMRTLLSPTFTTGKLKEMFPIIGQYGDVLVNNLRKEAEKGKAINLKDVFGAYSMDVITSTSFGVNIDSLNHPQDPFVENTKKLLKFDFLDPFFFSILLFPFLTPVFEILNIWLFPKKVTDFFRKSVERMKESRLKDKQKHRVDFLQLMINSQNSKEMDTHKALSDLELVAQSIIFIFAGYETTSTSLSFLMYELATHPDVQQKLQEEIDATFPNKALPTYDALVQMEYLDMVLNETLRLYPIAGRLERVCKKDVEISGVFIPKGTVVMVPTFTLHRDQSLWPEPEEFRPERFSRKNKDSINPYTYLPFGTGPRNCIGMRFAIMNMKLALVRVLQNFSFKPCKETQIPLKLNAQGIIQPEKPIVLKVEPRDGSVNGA

CC[C@]1(O)C[C@H]2CN(CCc3c([nH]c4ccccc34)[C@@](C(=O)OC)(c3cc4c(cc3OC)N(C=O)[C@H]3[C@@](O)(C(=O)OC)[C@H](OC(C)=O)[C@]5(CC)C=CCN6CC[C@]43[C@@H]65)C2)C1 [vincristine, vincristine sulfate]
IC20-IC80 values ([1]; vincristine alone): 1.7 to 6.8 nM | IC20-IC80 values ([2]; vincristine alone): 1.7 to 6.8 nM

COc1cccc2c1C(=O)c1c(O)c3c(c(O)c1C2=O)C[C@@](O)(C(=O)CO)C[C@@H]3O[C@H]1C[C@H](N)[C@H](O)[C@H](C)O1 [doxorubicin, doxorubicin hydrochloride]
inhibitory concentrations from IC20-IC80 ([1]; doxorubicin alone): 500 to 2000 nM | inhibitory concentrations from IC20-IC80 ([2]; doxorubicin alone): 500 to 2000 nM

CCCCCc1cc(O)c2c(c1)OC(C)(C)[C@@H]1CCC(C)=C[C@@H]21 [THC, delta-9-tetrahydrocannabinol]
THC serum concentration [3]: below the quantitation limit of the assay for nearly all samples

N.N.O=C([O-])C1(C(=O)[O-])CCC1.[Pt+2] [Carboplatin]
Mean MFI ratio compound:vehicle [4]: 0.74 | MFI in MDCK PGP cells ([4]; rhodamine alone 215): 160

C=C(C)[C@@H]1CCC(C)=C[C@H]1c1c(O)cc(CCCCC)c(C(=O)O)c1O [CBDA, cannabidiolic acid]
time-dependent inhibition (TDI) [5]: did not show TDI | time-dependent inhibition (TDI) [6]: did not show TDI | time-dependent inhibition (TDI) [7]: did not show TDI | IC50 ([8]; Canis lupus familiaris, B-cell, read-out: IC50 (Probit)): 15.1 µg/mL (≈ 42.1 µM) | concentrations that significantly diminished proliferation vs vehicle control ([8]; P<0.05): ≥ 5 µg/mL | IC50 (Probit) [9]: could not be determined since 50% growth inhibition is not achieved in the assay | concentrations that significantly diminished proliferation vs vehicle control ([9]; P<0.05): ≥ 10 µg/mL | IC50 (Probit) [10]: could not be calculated because of lack of growth inhibition | concentrations that significantly diminished proliferation vs vehicle control ([10]; P<0.05): 20 µg/mL | IC50 (Probit) [11]: could not be calculated because of lack of growth inhibition | concentrations that significantly diminished proliferation vs vehicle control ([11]; P<0.05): 20 µg/mL | IC50 (Probit) [12]: could not be calculated because of lack of growth inhibition | concentrations that significantly diminished proliferation vs vehicle control ([12]; P<0.05): 20 µg/mL

From patent US20240075087A1, “COMPOSITIONS AND METHODS COMPRISING HEMP EXTRACT FOR THE TREATMENT OF ANIMALS IN NEED” (Portland Technology Holdings LLC, priority 2021, published 2024)
